Assay [1] has as its system LbHsp90 and LbHsp90N recombinant proteins. Kind of assay: Differential scanning fluorimetry (thermal shift assay). In kind it is binding, L. braziliensis. The following applies: DSF; for Thermal shift: inclusion criterion Tm variation greater or equal to ± 2 °C in LbHsp90 or LbHsp90N, Yes/No. How it is done: The interaction of Hsp90 proteins with different compounds was monitored through the melting temperature (Tm) of each protein in the presence of a fixed concentration of the target compound by differential scanning fluorimetry (DSF) also referred as thermal shift assay. A final concentration of 10 µM of dimeric LbHsp90 and 20 µM of monomeric LbHsp90N in 40 mM Hepes buffer (pH 7.5) containing 100 mM KCl were used. The DMSO concentration in each sample was fixed at 2.5% (v/v). Prior to the readings, the samples were incubated for 30 min on ice. The fluorophore Sypro Orange (Life Technologies) was used as fluorescent probe. The experiments were performed at a thermocycler CFX96 Touch Real Time PCR Detection System (BioRad) and the data were analysed using the CFX Manager software (BioRad). As positive controls, 100 µM of GA and Radicicol (RDC) were used.

Assay [2] addresses T1, hHsp90β (Homo sapiens, UniProt P08238).
T1 construct: made in house; host or cells: Escherichia coli BL21(DE3)
The assay can be described thus: ATPase activity inhibition assay (EnzChek Pi quantification). In kind it is biochemical. The following applies: 50 μM compound, 2 μM enzyme, 2.5 mM ATP. How it is done: (§1) The ATPase activity of LbHsp90 and hHsp90β was evaluated spectrophotometrically through inorganic phosphate (Pi) quantification following ATP hydrolysis, by the EnzChek™ assay kit (Invitrogen®) as previous described[31]^,[34]. Briefly, a 2 µM solution of LbHsp90 and hHsp90β enzymes was prepared in 150 mM NaCl, 5 mM MgCl2 and 20 mM Tris-HCl, pH 7.5, and incubated with ATP (concentration range 0–5 mM) for 60 min at 37 °C. Then, the chromogenic substrate 2-amino-6-mercapto 7-methyl purine riboside (MESG) and the purine nucleoside phosphorylase (PNP) were added and the resulting reaction mixture was incubated for 30 min at 37 °C. The assays were performed in a 96-well plate and kinetic parameters determined by Michaelis–Menten fitting using GraphPad Prism 6 software.
(§2) Initial screenings were performed using 50 μM compound concentration in a reaction mixture consisting of 2 μM enzyme and 2.5 mM ATP. After 1 h incubation at 37 °C, MESG and PNP were added. The amount of Pi was estimated after 30 min incubation at 37 °C. […] A compound concentration ranging from 1 to 75 μM was included in the reaction mixture and Pi quantification performed as previously described (measurements were performed in triplicate). IC50 values were determined by non-linear regression data fitting (using GraphPad Prism 6 software).

Assay [3] has as its system promastigote form of L. braziliensis. Kind of assay: Cell viability assay (MTT/PMS), single concentration. The settings on record: L. braziliensis promastigotes, 200 μM/well; for Cell viability: 72 h, MTT/PMS, Yes = leishmanicidal activity; for reduced cell viability: after 72 h. In kind it is cell-based. How it is done: The leishmanicidal activity of the compounds was tested in vitro against the promastigote form of L. braziliensis applying 200 μM/well, (with a total of 0.5% DMSO) into 90 μL of culture. The concentration of L. braziliensis (MHOM/BR/1973/M2269) was adjusted to 10^7 cells/mL. Amphotericin (100 μM/well) was used as positive control, and 0.5% DMSO as negative control.
The plates were incubated at room temperature (RT) for 72 h. After this period, the viability of the promastigotes was verified via MTT (3–(4, 5-Dimethylthiazol-2-yl)-2, 5-Diphenyltetrazolium Bromide) colorimetric assay. MTT/PMS 11.1 μL/well solution (MTT = 5 mg/mL; Phenazine methosulfate-PMS = 0.22 mg/mL) was added, and the plate was incubated at RT for 4 h, at 150 RPM, protected from light. Formazan crystals were then solubilised by adding 100 μL/well of a solubilisation solution containing 7% SDS, 10 mM HCl and 30% DMSO. The mixture was incubated at RT for 90 min at 150 RPM protected from light. Wells containing the medium and the compounds or DMSO without MTT were used as blank controls. The absorbance was quantified in a plate reader (Biotek Synergy HT) at 570 nm.
The cell viability percentages were calculated by the following equation: (1) Cell viability %= AT−AB/AU−AB ×100 where AT was an averaged absorbance from treated samples, AB blank absorbance and AU was an averaged absorbance from negative control.

Assay [4] concerns the target T2, LbHsp90 (Leishmania braziliensis, UniProt A4HL70). The arrangement: method as in PMID 22910377. The settings on record: measured by Tryptophan fluorescence quenching ref 31; read-out: KDapp LbHsp90; cited from earlier work.
The target of assay [5] is T2, LbHsp90. The assay can be described thus: ATPase activity inhibition assay (EnzChek Pi quantification). In kind it is biochemical. As to the method: as §1
as §2, with “The inhibitory activity against LbHsp90 and hHsp90β of compounds showing interaction in DSF assays (namely Glb08, Glb15, Gl23, Glb25 and Glb27) was determined using spectrophotometric ATPase activity assays as described above. Initial” for “Initial”, “°C. GA was used as reference compound, reporting 100% ATPase activity inhibition (at 50 μM).” for “°C.”

In assay [6] the target is LbHsp90N. The arrangement: method as in PMID 22910377. The following applies: measured by Tryptophan fluorescence quenching ref 31; read-out: KDapp LbHsp90N; cited from earlier work.
In assay [7] the test system is L. amazonensis. More on the design: method as in PMID 31611575. The settings on record: determined against L. amazonensis ref 36; read-out: IC50 (L. braziliensis column); cited from earlier work.
Assay [8] concerns Balb-c 3T3 clone A31 mouse fibroblasts. The assay can be described thus: Cytotoxic assay (MTT). In kind it is cell-based. The settings on record: Balb-c 3T3 mouse fibroblasts, 72 h, 37 °C. As to the method:
Compounds cytotoxicity was evaluated in 100 μL of Balb-c 3T3 cone A31 mouse fibroblasts (10^5 cells/mL) into a 96-well plate, incubated for 24 h at 37 °C to become adhered. After this period, the medium was washed and 100 μL of each compound was added to the culture medium (concentration ranging from 1 to 200 μM/well, with a total of 0.5% DMSO) in quadruplicate. Rapamycin was used as a positive control, and 0.5% DMSO was used as negative control. The plates were incubated for 72 h at 37 °C. After this, the viability of Balb-c 3T3 cells was evaluated by MTT colorimetric assay, as described previously.

The test system of assay [9] is promastigote forms of L. braziliensis. Kind of assay: In vitro IC50 determination (leishmanicidal activity, MTT/PMS). In kind it is cell-based. The settings on record: promastigotes, 72 h, RT. As to the method:
Amphotericin 100 μM/well and 0.5% DMSO were used as positive and negative control, respectively. The plates were incubated at RT for 72 h. After this, the viability of the promastigotes was verified by MTT/PMS colorimetric assay, as described above. In vitro leishmanicidal activity, expressed as IC50, was determined using GraphPad Prism 5 software according to the following equation: (2) y= Amin + Amax−Amin/1+10^logIC50 −x*Hillslope where Amin and Amax are, respectively, the minimum and maximum activities obtained, x is the ligand concentration and Hill Slope is the parameter that describes the steepness of the curve.
The selectivity index parameter was obtained by the ratio of compound IC50 against mammalian cells and compound IC50 against promastigote cells.

In assay [10] the target is LbHsp90N. Kind of assay: Tryptophan fluorescence quenching interaction assay. In kind it is binding, L. braziliensis. The following applies: N-terminal domain, read-out: KDapp LbHsp90N. How it is done:
(§3) Two µM of protein in 40 mM Hepes buffer (pH 7.5), 100 mM KCl, was incubated for 30 min on ice with increasing concentrations of the compounds diluted in DMSO. […] The samples were excited at 280 nm and the emission was collected in the 300–400 nm range, in a 1.0 × 0.2 cm optical path cuvette, on an F-4500 Fluorescence Spectrophotometer (Hitachi). The fluorescence quenching was analysed at the maximum emission wavelength in the absence of ligand. The determination of the apparent dissociation constant (KDapp) was performed by fitting the fluorescence values obtained for each compound concentration according to a dose-response model through the Equation (3): (3) y = Fmin + (Fmax−Fmin)/(1+10^(logKD− [ligand])) where Fmin and Fmax are the minimum and maximum fluorescence intensity and [ligand] is the compound concentration used in the assay, according to the GraphPad Prism 5 software. The fluorescence intensities were corrected by inner filter effects as previously described.

The target in assay [11] is T1, hHsp90β. The description is as above. In kind it is binding. The following applies: full-length, tryptophan fluorescence quenching; read-out: KDapp hHsp90β. How it is done: as §3
Assay [12] deals with T2, LbHsp90. The description is as above. In kind it is binding. The following applies: full-length, tryptophan fluorescence quenching; read-out: KDapp LbHsp90. As to the method:
as §3

In assay [13] the target is T3, hHsp90βN (Homo sapiens, UniProt P08238).
T3 construct: N-terminal domain construct (Hsp90βN – residues 1–223); His-tag (cleaved yes); made in house; host or cells: Escherichia coli BL21(DE3)
T3 sequence (P08238 1-223): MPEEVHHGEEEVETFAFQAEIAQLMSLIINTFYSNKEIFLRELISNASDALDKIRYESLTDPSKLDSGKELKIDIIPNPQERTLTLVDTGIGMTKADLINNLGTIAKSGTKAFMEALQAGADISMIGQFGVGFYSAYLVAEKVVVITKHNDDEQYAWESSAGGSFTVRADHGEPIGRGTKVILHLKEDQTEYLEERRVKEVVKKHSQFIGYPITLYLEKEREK
The assay is described as above. In kind it is binding. The settings on record: N-terminal domain, read-out: KDapp hHsp90βN. As to the method:
as §3

The mark [14] stands for this setting: compound 1 to 75 μM, triplicate, read-out: IC50 LbHsp90 ATPase activity inhibition.

This is an account of results in article PMC7034072, “Discovery of small molecule inhibitors of Leishmania braziliensis Hsp90 chaperone” (Journal of Enzyme Inhibition and Medicinal Chemistry, 2020).

Where two headings read alike, the source gives them in different places.

T1 sequence (P08238 whole entry): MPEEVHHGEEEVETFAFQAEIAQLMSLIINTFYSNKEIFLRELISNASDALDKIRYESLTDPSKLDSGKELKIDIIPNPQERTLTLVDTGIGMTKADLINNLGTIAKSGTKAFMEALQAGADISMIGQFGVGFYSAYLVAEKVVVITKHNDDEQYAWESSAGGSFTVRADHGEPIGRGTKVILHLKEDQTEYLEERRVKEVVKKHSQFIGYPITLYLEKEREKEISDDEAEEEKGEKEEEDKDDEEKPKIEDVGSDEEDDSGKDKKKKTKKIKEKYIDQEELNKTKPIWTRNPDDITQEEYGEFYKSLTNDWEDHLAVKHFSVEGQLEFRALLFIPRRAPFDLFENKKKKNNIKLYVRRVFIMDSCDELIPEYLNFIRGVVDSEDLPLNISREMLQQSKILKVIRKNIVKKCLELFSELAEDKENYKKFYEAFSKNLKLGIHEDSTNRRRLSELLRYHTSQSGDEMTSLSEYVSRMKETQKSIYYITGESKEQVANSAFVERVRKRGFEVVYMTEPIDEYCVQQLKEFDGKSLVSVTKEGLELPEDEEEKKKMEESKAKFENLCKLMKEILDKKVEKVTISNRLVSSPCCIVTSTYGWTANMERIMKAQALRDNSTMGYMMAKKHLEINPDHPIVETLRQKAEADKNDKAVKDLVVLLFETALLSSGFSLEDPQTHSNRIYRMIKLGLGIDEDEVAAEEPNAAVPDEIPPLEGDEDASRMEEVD
T2 sequence (A4HL70 entry or part of it): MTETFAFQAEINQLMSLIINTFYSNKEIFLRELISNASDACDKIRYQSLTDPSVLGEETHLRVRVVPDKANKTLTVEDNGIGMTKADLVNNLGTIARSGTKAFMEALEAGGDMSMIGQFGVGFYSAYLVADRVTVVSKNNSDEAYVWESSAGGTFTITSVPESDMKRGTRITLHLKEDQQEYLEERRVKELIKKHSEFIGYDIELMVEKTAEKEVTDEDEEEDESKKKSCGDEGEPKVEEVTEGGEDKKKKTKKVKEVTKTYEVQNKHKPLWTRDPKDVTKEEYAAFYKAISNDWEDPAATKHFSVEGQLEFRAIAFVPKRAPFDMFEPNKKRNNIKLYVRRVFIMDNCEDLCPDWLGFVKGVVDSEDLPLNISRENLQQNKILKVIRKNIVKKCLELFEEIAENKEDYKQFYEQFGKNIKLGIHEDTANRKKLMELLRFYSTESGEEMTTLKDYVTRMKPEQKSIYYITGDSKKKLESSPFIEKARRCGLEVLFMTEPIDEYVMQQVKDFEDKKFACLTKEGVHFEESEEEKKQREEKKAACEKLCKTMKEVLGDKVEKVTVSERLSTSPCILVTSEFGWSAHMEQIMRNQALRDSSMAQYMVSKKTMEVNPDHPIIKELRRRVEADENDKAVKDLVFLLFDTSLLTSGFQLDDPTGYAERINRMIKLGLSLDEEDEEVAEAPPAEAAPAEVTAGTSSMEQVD

On to `COC1=C2C[C@@H](C)C[C@H](OC)[C@H](O)[C@@H](C)/C=C(\C)[C@H](OC(N)=O)[C@@H](OC)/C=C\C=C(/C)C(=O)NC(=CC1=O)C2=O` [GA, geldanamycin, reference compound], for which the ΔTm in assay [1] (100 µM positive controls, protein stabilisation) is greater than 2.0 °C. In addition, in [2], the “percentage inhibition of hHsp90β ATPase activity” value (from here on “percentage inhibition”) is “fully inhibits enzyme activity”. In [3], the Cell viability result is recorded as “Yes”. The Kd in [4] is 7.6 ± 0.2 µM; in assay [6], 1.8 ± 0.3 µM. The IC50 was 9 µM in assay [5] and 0.19 µM in assay [7]. In addition, in assay [5] (read-out: percentage inhibition of LbHsp90 ATPase activity), the inhibition at 50 µM was determined as 100%.
As for `N=C(N)Nc1nc(-c2ccccc2)c2ccccc2n1` [Glb08], the Thermal shift entry in [1] is “positive outcomes and Yes”. For the same compound, in assay [2], the “percentage inhibition” value is reported as “lower than 60%”. The IC50 in [8] turned out to be 75 ± 3 µM; in assay [5] (setting [14]) it was 30 ± 1 µM; in assay [9] it was 43 ± 2 µM. For the same compound, the Cell viability entry in [3] is “Yes”. The reduced cell viability entry in [3] is recorded as “more than 60%”. The Kd in [10] came to 17 ± 6 µM; in assay [11], 20 ± 5 µM; in [12], 13 ± 4 µM; in assay [13], 29 ± 3 µM.
In the case of `N=C(N)NN=Cc1cnn(Cc2ccccc2)c1` [Glb15], in assay [1], the Thermal shift entry is reported as “No”. Besides, in assay [2], the “percentage inhibition” value is “lower than 60%”. The IC50 is greater than 200 µM in [8], 36 ± 1 µM in [5] (setting [14]) and 71 ± 2 µM in assay [9]. The Cell viability entry in [3] is listed as “Yes”. Further, in assay [3], the reduced cell viability result is “more than 60%”. Moreover, the Kd in [10] is 13 ± 3 µM; in assay [11], 14 ± 6 µM; in [12], 14 ± 4 µM; in assay [13] it was 12 ± 3 µM.
For the compound `N=C(N)SCc1nc2ccccc2c(=O)n1-c1ccccc1` [Glb23], the Thermal shift result in [1] is “No”. For the same compound, in [2], the “percentage inhibition” value is recorded as “lower than 60%”. For the same compound, the values for the concentration for half-maximal inhibition (IC50) in [8], in assay [5] (setting [14]) and in assay [9] were 55 ± 1 µM, 35 ± 1 µM and greater than 100 µM, respectively. Further, the Cell viability entry in assay [3] is given as “Yes”. In addition, in [3], the reduced cell viability result is “more than 60%”. The Kd in assay [11] turned out to be 21 ± 9 µM; in [12] it was 26 ± 7 µM; in [13] it was 20 ± 30 µM.
On to `Cc1cc(CSC(=N)N)c2oc(-c3ccccc3)cc(=O)c2c1` [Glb25], for which, in assay [1], the Thermal shift result is “positive outcomes and Yes”. In assay [2], the “percentage inhibition” value was “lower than 60%”. In addition, the concentration for half-maximal inhibition (IC50) is 11 ± 1 µM in assay [8] and greater than 200 µM in [9]. Besides, the Cell viability result in [3] is on record as “Yes”. Moreover, in assay [3], the reduced cell viability entry was “more than 60%”. Besides, the Kd was determined as 12 ± 2 µM in assay [10], 15 ± 9 µM in assay [11], 7 ± 3 µM in assay [12] and 14 ± 3 µM in assay [13].
